Drawing on patent US7834024B2, “Compositions and methods for inhibition of the JAK pathway” (Rigel Pharmaceuticals, Inc., priority 2007, dated 2010), this text covers IC50 for eleven molecules.

Assay [1] has as its system JAK2 (BaF3 V617F cells, UKE-1). Put plainly: Proliferation Assay (Cell Titer-Glo, 72 hours). As to conditions: proliferation 72 hours, BaF3 V617F or UKE-1 cells, cell line not given, read-out: Example 7 (IC50). The class given is cell-based. As for the experimental part: • Dimethyl Sulfoxide (DMSO) (Sigma-Aldrich, Cat No. D2650) (Control) • Iscove's DMEM, ATCC Catalog #30-2005 • 1 M HEPES, Cellgro Catalog #25-060-Cl (100 mL) • 100 mM Sodium Pyruvate, Cellgro Catalog #25-000-Cl (100 mL) • Penicillin/Streptomycin, 10000 U/mL each, Cellgro Catalog #30-002-Cl (100 mL) • RPMI 1640 (Cellgro, Cat No. 10-040-CM) • Fetal Bovine Serum (JRH, Cat No. 12106-500M) • Donor Equine Serum, Hyclone Catalog #SH30074.02 (100 mL) • 50 μM hydrocortisone solution, Sigma Catalog #H6909-10 ml (10 mL) Culture Conditions
BaF3 V617F cells are maintained and plated in RPMI with 10% FBS. Plating density for these cells is 1×10^5 cells/mL.
UKE-1 are maintained and plated in Iscove's DMEM containing 10% FBS, 10% equine serum, 1% penicillin/streptomycin and 1 uM hydrocortisone. Plating density for these cells is 0.4×10^6 cells/mL
The cells were resuspended in a corresponding medium at a required cell density (see above). 100 μ of cell suspension was added to each well of a flat bottom 96 well white plate. The compound was serially diluted in DMSO from 5 mM in 3-fold dilutions, and then diluted 1:250 in the RPMI 1640 medium containing 5% FBS and pen/strep. 100 μL of resulting 2× compound solution was added per well in duplicate and the cells were allowed to proliferate for 72 hours at 37° C.
Proliferation was measured using Cell Titer-Glo. The substrate was thawed and allowed to come to room temperature. After removal of top 100 μL of medium from each well, 100 μL of the premixed Cell Titer-Glo reagent was added to each well. The plates were mixed on an orbital shaker for three minutes to induce lysis and incubated at ambient temperature for an additional five minutes to allow the signal to equilibrate. The Luminescence was read on the Wallac Plate Reader.
The results of the ability of the compounds of the invention to inhibit JAK2 activity, when tested in the above assay, are shown in the following Table IX wherein the level of activity (i.e. the IC50) for each compound is indicated in Table IX. Thae compound numbers in Table IX Refers to the compound disclosed herein as being preparded hy the methods disclosed herein: […]

In assay [2] the test system is Ramos B-Cell Line Stimulated with IL-4 (JAK-1 and JAK-3 / Stat-6, CD23). Put plainly: Assay for Ramos B-Cell Line Stimulated with IL-4 (CD23 upregulation, FACS). The class given is cell-based. To be noted: human Ramos B cells, compound 1 hour, IL-4 50 units/mL for 20-24 hours, anti-CD23-PE FACS, read-out: Example 2 (IC50). In short, it runs like this: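 Human Ramos B cells (5×10^4 per point, RPMI with 5% serum) pre-incubated 1 hour at 37° C with compound or DMSO, then stimulated with IL-4 at 50 units/mL final for 20-24 hours. CD23 upregulation measured by flow cytometry.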

Like-named read-outs stand apart in the source and are kept apart here.

Take `Cc1cnc(Nc2cccc(C(N)=O)c2)nc1Nc1ccc2c(c1)N(C)C(=O)C(C)(C)S2` [II-45, N2-(3-Aminocarbonylphenyl)-5-methyl-N4-(2,2,4-trimethyl-3-oxo-benz[1,4]thiazin-6-yl)-2,4-pyrimidinediamine]: the IC50 in assay [1] stood at 0.432 µM; in assay [2] (Homo sapiens, Ramos), 0.179 µM.
Consider `N#CCOc1cccc(Nc2nc(Nc3ccc(C(N)=O)cc3)ncc2F)c1` [Compound I-44, N2-(4-Aminocarbonylphenyl)-N4-(3-cyanomethoxyphenyl)-5-fluoro-2,4-pyrimidinediamine], for which the IC50 in assay [1] was found to be 0.567 µM; in assay [2] (Homo sapiens, Ramos), 0.0217 µM.
For the molecule `CNC(=O)COc1cccc(Nc2ncc(C)c(Nc3ccc4c(c3)N(C)C(=O)CS4)n2)c1` [II-8, 5-Methyl-N2-[3-(N-methylaminocarbonylmethyleneoxy)phenyl]-N4-(4-methyl-3-oxo-2H-benzo[1,4]thiazin-6-yl)-2,4-pyrimidinediamine], the IC50 was found to be 0.223 µM in assay [1] and 0.0564 µM in assay [2].
As to `CN1CCN(c2ccc(Nc3ncc(F)c(Nc4ccc(OCC#N)cc4)n3)cc2C#N)CC1` [Compound I-41, N4-(4-Cyanomethoxyphenyl)-N2-[3-cyano-4-(4-methylpiperazin-1-yl)phenyl]-5-fluoro-2,4-pyrimidinediamine], the IC50 turned out to be 0.388 µM in assay [1] and 0.0034 µM in assay [2] (Homo sapiens, Ramos).
The corresponding values for `Cc1cnc(Nc2cccc(C#N)c2)nc1Nc1ccc2c(c1)N(C)C(=O)CO2` [II-10, N2-(3-Cyanophenyl)-5-methyl-N4-(4-methyl-3-oxo-2H-benzo[1,4]oxazin-6-yl)-2,4-pyrimidinediamine] are 0.98 µM and 0.116 µM.
Regarding `CNC(=O)COc1cc(Nc2ncc(F)c(Nc3ccc4c(c3)NC(=O)C(C)(C)S4)n2)cc(OC)c1OC` [II-17, N2-[4,5-Dimethoxy-3-(N-methylaminocarbonylmethyleneoxy)phenyl]-N4-(2,2-dimethyl-3-oxo-4H-benzo[1,4]thiazin-6-yl)-5-fluoro-2,4-pyrimidinediamine], the IC50 in assay [1] stood at 0.16 µM; in assay [2], 0.0573 µM.
The corresponding values for `Cc1cnc(Nc2cccc(C(N)=O)c2)nc1Nc1ccc2c(c1)N(C)C(=O)CS2` [II-41, N2-(3-Aminocarbonylphenyl)-N4-(3,4-dihydro-2H-4-methyl-3-oxo-benz[1,4]thiazin-6-yl)-5-methyl-2,4-pyrimidinediamine] are 2.07 µM and 0.129 µM.
Turning to `CNC(=O)COc1cccc(Nc2ncc(C)c(Nc3ccc4c(c3)N(C)C(=O)C(F)(F)O4)n2)c1` [II-37, N4-(2,2-Difluoro-4-methyl-3-oxo-4H-benzo[1,4]oxazin-6-yl)-5-methyl-N2-[3-(N-methylaminocarbonylmethyleneoxy)phenyl]-2,4-pyrimidinediamine], the results for the IC50 in assay [1] and in assay [2] were 0.492 µM and 0.0802 µM, respectively.
Take `Cc1cnc(Nc2cccc(C#N)c2)nc1Nc1ccc2c(c1)NC(=O)CO2` [II-6, N2-(3-Cyanophenyl)-5-methyl-N4-(3-oxo-2H,4H-benzo[1,4]oxazin-6-yl)-2,4-pyrimidinediamine]: the IC50 in assay [1] is 68.3 µM; in assay [2] (Homo sapiens, Ramos) it was 0.0697 µM.
Regarding `CNC(=O)COc1cc(Nc2ncc(F)c(Nc3ccc4c(c3)NC(=O)C(C)(C)O4)n2)cc(OC)c1OC` [II-18, N2-[4,5-Dimethoxy-3-(N-methylaminocarbonylmethyleneoxy)phenyl]-N4-(2,2-dimethyl-3-oxo-benzo[1,4]oxazin-6-yl)-5-fluoro-2,4-pyrimidinediamine], the figures for the IC50 in assay [1] and in assay [2] were 0.653 µM and 0.0251 µM, respectively.
In the case of “N2-(3-Aminocabonylphenyl)-N4-(3,4-dihydro-2H-4-methyl-3-oxo-5-pyrido[1,4]oxazin-6-yl)-2,4-pyrimidinediamine [II-42]”, the figures for the IC50 in assay [1] and in assay [2] were 1.64 µM and 0.18 µM, respectively.
